The values that follow come from US20050014847A1, “Ambroxol for the treatment of chronic nociceptive pain” (Boehringer Ingelheim International GmbH, priority 2003, published 2005).

One may read the IC50 as the concentration at which inhibition is half-maximal.

The target in one assay is T1, human GluR1/2 receptors (Homo sapiens, UniProt P42261+P42262).
T1 construct: expressed in transfected cells; host or cells: HEK 293
Description: Patch-Clamp inhibition of glutamate-induced membrane currents in HEK 293 cells. The following applies: HEK 293 cells expressing recombinant human GluR1/2, 1 mM glutamate for 1 s, holding potential −80 mV. The format is cell-based. As for the experimental part:
Ionotropic glutamate receptors of the AMPA sub-type are also essential for the excitatory neurotransmission. […] HEK 293 cells which expressed functionally recombinant human GluR1/2 receptors were electrophysiologically investigated by the Patch-Clamp method ([…]). The administration of 1 mM glutamate (for 1 s at a holding potential of −80 mV) induced membrane currents which were inhibited by the joint administration of ambroxol.
(In general: Patch clamp records ionic current or voltage across a cell membrane.)

For assay [1], the system named is Tetrodotoxin-sensitive currents (sodium channels). The format is cell-based, rat. The following applies: read-out: IC50 tetrodotoxin-sensitive currents; neuron cultures from posterior root ganglia of adult rats.

SMILES strings stand for the structures. Bounds are passed on as bounds.

T1 sequence (P42261 19-906): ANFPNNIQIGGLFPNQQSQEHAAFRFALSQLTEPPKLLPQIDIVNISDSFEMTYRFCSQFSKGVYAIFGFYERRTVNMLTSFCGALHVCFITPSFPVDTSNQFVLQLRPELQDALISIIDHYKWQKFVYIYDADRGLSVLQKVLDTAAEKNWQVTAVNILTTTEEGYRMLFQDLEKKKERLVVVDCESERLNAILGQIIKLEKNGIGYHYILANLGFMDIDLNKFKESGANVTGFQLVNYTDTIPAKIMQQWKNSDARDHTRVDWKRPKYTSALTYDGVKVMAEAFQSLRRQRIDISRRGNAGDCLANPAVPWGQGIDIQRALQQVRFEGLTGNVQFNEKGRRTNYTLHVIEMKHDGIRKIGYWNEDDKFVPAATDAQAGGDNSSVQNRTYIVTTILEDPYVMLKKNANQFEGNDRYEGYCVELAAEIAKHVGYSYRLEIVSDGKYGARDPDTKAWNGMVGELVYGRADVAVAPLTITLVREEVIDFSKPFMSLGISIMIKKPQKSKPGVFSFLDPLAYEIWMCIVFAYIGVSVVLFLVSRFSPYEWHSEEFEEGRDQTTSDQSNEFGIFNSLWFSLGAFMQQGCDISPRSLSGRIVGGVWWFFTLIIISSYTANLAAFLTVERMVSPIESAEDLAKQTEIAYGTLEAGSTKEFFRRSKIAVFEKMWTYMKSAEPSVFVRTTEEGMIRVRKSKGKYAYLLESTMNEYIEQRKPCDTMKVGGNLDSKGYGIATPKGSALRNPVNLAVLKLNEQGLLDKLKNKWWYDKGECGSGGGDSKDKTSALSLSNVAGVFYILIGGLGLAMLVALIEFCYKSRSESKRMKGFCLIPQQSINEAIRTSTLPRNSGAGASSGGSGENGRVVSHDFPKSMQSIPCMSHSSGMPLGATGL
T1 sequence (P42262 22-883 limits assumed): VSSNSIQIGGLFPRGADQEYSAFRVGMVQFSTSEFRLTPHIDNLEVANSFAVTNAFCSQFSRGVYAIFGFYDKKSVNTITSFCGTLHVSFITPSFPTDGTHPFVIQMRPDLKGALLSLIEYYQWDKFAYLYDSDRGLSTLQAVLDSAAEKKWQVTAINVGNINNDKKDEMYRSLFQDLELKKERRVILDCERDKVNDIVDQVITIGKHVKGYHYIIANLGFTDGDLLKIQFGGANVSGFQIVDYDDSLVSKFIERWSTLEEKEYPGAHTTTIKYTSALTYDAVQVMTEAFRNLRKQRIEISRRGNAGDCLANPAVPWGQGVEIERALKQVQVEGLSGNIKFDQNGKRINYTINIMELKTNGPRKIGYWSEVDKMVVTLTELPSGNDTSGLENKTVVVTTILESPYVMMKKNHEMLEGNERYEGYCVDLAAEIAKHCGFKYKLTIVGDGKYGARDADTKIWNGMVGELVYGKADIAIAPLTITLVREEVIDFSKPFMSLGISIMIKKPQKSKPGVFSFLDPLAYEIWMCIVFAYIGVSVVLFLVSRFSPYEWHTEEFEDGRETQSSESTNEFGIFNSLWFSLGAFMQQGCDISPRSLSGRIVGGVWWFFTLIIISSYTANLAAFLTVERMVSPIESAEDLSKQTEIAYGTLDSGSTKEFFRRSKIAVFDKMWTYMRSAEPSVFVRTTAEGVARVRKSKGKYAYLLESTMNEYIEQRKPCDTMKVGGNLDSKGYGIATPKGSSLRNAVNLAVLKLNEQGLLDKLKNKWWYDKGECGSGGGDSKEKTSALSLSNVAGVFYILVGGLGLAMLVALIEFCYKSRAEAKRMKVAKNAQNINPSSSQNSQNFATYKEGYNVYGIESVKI

On to `Nc1c(Br)cc(Br)cc1CN[C@H]1CC[C@H](O)CC1` [ambroxol, trans-4-(2-amino-3,5-dibromobenzylamino)cyclohexanol], for which, at human GluR1/2 receptors, the “concentrations inhibiting glutamate-induced membrane currents” value lay within 30 to 1000 µM. In assay [1], the IC50 is over 100 µM.
